According to the CheMixHub viscosity set:

Test: xn = mol fraction of the nth substance listed

C=CC(=O)OCCCC + C1CCOC1
viscosity [mPa·s], 101 kPa
Conditions	293.15 K	298.15 K	303.15 K	308.15 K	313.15 K	318.15 K
x2 = 0.0712	0.8609	0.8036	0.7505	0.7019	0.6569	0.6143
x2 = 0.1406	0.8246	0.7708	0.721	0.6751	0.6321	0.5913
x2 = 0.208	0.7908	0.7403	0.6935	0.65	0.609	0.5698
x2 = 0.2779	0.7572	0.71	0.6661	0.6249	0.5858	0.5482
x2 = 0.3685	0.7159	0.6727	0.6323	0.594	0.5571	0.5213
x2 = 0.4339	0.6875	0.6471	0.609	0.5727	0.5374	0.5028
x2 = 0.4996	0.6603	0.6225	0.5867	0.5522	0.5182	0.4848
x2 = 0.5642	0.6347	0.5995	0.5657	0.5328	0.5002	0.4677
x2 = 0.6426	0.6053	0.5729	0.5415	0.5104	0.4792	0.4478
x2 = 0.7208	0.5778	0.548	0.5187	0.4893	0.4592	0.4288
x2 = 0.7956	0.553	0.5256	0.4981	0.4701	0.4411	0.4115
x2 = 0.8642	0.5316	0.5063	0.4803	0.4534	0.4253	0.3964
x2 = 0.9322	0.5117	0.4882	0.4637	0.4378	0.4103	0.3819

CC(C)CO + C1COCCO1
298.15 K, 101 kPa
Conditions	viscosity [mPa·s]
x2 = 0.0416	2.787
x2 = 0.125	2.14
x2 = 0.2354	1.668
x2 = 0.3104	1.489
x2 = 0.4165	1.296
x2 = 0.4739	1.231
x2 = 0.5066	1.206
x2 = 0.5756	1.153
x2 = 0.5788	1.144
x2 = 0.7141	1.107
x2 = 0.7411	1.098
x2 = 0.7859	1.107
x2 = 0.832	1.099
x2 = 0.8845	1.109
x2 = 0.9419	1.131

CCCCCOC(C)=O + C1COCCO1
303.15 K, 101.3 kPa
Conditions	viscosity [mPa·s]
x2 = 0.0981	0.7721
x2 = 0.2981	0.8134
x2 = 0.505	0.8719
x2 = 0.7018	0.9452
x2 = 0.9003	1.037

Cc1ccccc1O + C1COCCO1
308.15 K, 101 kPa
Conditions	viscosity [mPa·s]
x2 = 0.1	4.947
x2 = 0.2	4.855
x2 = 0.3	4.267
x2 = 0.4	3.498
x2 = 0.5	2.795
x2 = 0.6	2.208
x2 = 0.7	1.764
x2 = 0.8	1.382
x2 = 0.9	1.163

CCCCCOC(C)=O + C=Cc1ccccc1
Conditions	viscosity [mPa·s]
298.15 K, 101 kPa, x2 = 0.103	0.802
